Experimental findings from ChEMBL document CHEMBL3745672, “Novel compounds reducing IRS-1 serine phosphorylation for treatment of diabetes” (Bioorg Med Chem Lett, 2016) are described below.

Experiment [1] addresses T1, Mitogen-activated protein kinase 8 (Homo sapiens, UniProt P45983). Put plainly: Inhibition of JNK1 (unknown origin).
For experiment [2], the target named is T1, Mitogen-activated protein kinase 8. Put plainly: Inhibition of JNK1 (unknown origin) expressed in HEK293 cells assessed as anisomycin-induced JNK phosphorylation at 10 uM incubated for 30 mins by Western blot analysis relative to anisomycin. The experiment is classed as cell-based. Details: scale not given: the % may be the effect or the level left.
For experiment [3] the target is unchanged. Briefly: Inhibition of JNK1 (unknown origin) expressed in HEK293 cells assessed as anisomycin-induced IRS-1(Ser307) phosphorylation at 10 uM incubated for 30 mins by Western blot analysis relative to anisomycin. It counts as cell-based. Details: scale not given: the % may be the effect or the level left. A general note: Immunoblotting shows a protein as a band on a membrane.

The target is the same in experiment [4]. Briefly: Inhibition of JNK1 (unknown origin) expressed in HEK293 cells assessed as anisomycin-induced c-Jun phosphorylation at 10 uM incubated for 30 mins by Western blot analysis relative to anisomycin. The experiment is classed as cell-based. Details: scale not given: the % may be the effect or the level left.
Experiment [5] concerns HEK293. Put plainly: Cytotoxicity against HEK293 after 24 hrs by CellTiter-Glo luminescent cell viability assay. It counts as cell-based. As to conditions: Homo sapiens, HEK293, 24 h. For orientation: Cellular ATP, detected with luciferase, serves as a proxy for viable cell number.
Experiment [6] deals with Mitogen-activated protein kinase 8 (Rattus norvegicus) (UniProt P49185). Briefly: Inhibition of JNK1 phosphorylation in rat RINm5F cells assessed as suppression of albumin-conjugated palmitate-induced IRS-1 Ser307 phosphorylation incubated for 8 hrs. The experiment is classed as cell-based. Details: concentration or dose not given beside the values. As to conditions: concentration not given here.

Experiment [7] has the same target. Put plainly: Inhibition of albumin-conjugated palmitate-induced JNK1/2 phosphorylation assessed as JNK phosphorylation level in rat RINm5F cells incubated for 8 hrs. It counts as cell-based.

Calls of active or inactive are those of the source. The calls are words filed in the database; no cut-off is given here. Where only a bound is given, the exact number is not on record here.

T1 sequence (P45983 whole entry): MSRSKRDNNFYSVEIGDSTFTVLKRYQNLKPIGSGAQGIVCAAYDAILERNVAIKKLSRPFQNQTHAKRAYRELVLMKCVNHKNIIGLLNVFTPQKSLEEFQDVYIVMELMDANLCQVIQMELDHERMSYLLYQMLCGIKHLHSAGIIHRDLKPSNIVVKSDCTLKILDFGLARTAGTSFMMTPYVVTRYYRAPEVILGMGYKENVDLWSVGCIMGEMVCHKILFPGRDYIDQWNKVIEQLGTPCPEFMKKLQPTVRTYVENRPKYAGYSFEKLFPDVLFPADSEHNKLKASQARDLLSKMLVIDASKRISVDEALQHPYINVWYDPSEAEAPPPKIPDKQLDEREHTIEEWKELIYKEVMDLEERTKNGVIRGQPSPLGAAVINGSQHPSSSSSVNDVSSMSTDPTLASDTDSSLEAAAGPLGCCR
Mitogen-activated protein kinase 8 (Rattus norvegicus), sequence (P49185 whole entry): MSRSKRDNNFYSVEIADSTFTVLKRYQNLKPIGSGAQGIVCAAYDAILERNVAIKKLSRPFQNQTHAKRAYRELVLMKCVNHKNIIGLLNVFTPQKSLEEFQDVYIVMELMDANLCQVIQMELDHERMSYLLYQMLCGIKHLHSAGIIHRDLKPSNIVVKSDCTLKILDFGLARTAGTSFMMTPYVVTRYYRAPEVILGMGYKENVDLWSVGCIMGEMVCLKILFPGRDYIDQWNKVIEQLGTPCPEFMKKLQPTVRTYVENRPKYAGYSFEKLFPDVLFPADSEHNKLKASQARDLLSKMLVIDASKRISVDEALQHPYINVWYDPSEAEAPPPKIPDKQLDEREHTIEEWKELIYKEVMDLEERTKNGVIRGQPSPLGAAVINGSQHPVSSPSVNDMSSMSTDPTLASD

As usually defined, the IC50 is the point on the concentration scale where inhibition reaches its midpoint. As for `Cn1c(=O)c(Oc2ccc(F)cc2F)cc2cnc(NCCNS(C)(=O)=O)nc21`, the half-inhibitory concentration (IC50) in experiment [1] was 18.9 µM; in experiment [5], more than 30 µM. The values for the Activity in experiment [2], in experiment [3] and in experiment [4] were 75.8%, 12.2% and 67.5%, respectively.
For `Cn1c(=O)c(Oc2c(Cl)cccc2Cl)cc2cnc(Nc3ccc(N4CCCCC4)cc3)nc21`, the 50% inhibitory concentration (IC50) in experiment [1] was more than 23 µM; in experiment [5], more than 30 µM. The Activity stood at 129% in experiment [2], 46.3% in experiment [3] and 108% in experiment [4].
Regarding `Cn1c(=O)c(Oc2c(Cl)cccc2Cl)cc2cnc(NCCN3CCOCC3)nc21`, the concentration for half-maximal inhibition (IC50) was 27.1 µM in experiment [1] and more than 30 µM in experiment [5]. Besides, the Activity in experiment [2] amounted to 139%; in experiment [3] it was 71.3%; in experiment [4], 114%.
For `Cn1c(=O)c(Oc2c(Cl)cccc2Cl)cc2cnc(N3CCC(O)CC3)nc21`, the 50% inhibitory concentration (IC50) in experiment [1] is more than 23 µM; in experiment [5], more than 30 µM. The Activity in experiment [2] came out at 96.3%; in experiment [3], 40.5%; in experiment [4] it was 99.1%.
The matching figures for `Cn1c(=O)c(Oc2ccc(F)cc2F)cc2cnc(N3CCCC(CO)C3)nc21` (stereo not drawn): more than 23 µM, more than 30 µM, 21.1%, 79.4% and 103%.
Regarding `Cn1c(=O)c(Oc2c(Cl)cccc2Cl)cc2cnc(N3CCC(O)C3)nc21` (stereo not drawn), the IC50 is more than 23 µM in experiment [1] and more than 30 µM in experiment [5]. Further, the Activity was determined as 74.5% in experiment [2], 74.5% in experiment [3] and 82.5% in experiment [4].
As for `NC(=O)c1ccccc1Nc1ccnc(Nc2cccc(O)c2)n1`, the half-maximal inhibitory concentration (IC50) in experiment [1] was 0.17 µM; in experiment [5] it was more than 30 µM. Moreover, the Activity was 97% in experiment [3] and 104% in experiment [4].
In the case of `Cn1c(=O)c(Oc2c(Cl)cccc2Cl)cc2cnc(N3CCCC(CO)C3)nc21` (stereo not drawn), the figures for the IC50 in experiment [1] and in experiment [5] were more than 23 µM and more than 30 µM, respectively. Further, the Activity in experiment [2] worked out at 99.3%; in experiment [3], 99.3%; in experiment [4], 103%.
Consider `Cn1c(=O)c(Oc2ccc(F)cc2F)cc2cnc(Nc3ccc(N4CCCC4)cc3)nc21`, for which the values for the IC50 in experiment [1] and in experiment [5] were more than 23 µM and more than 30 µM, respectively. Also, the Activity is 98.9% in experiment [2], 98.9% in experiment [3] and 108% in experiment [4].
For `Cn1c(=O)c(Oc2ccc(F)cc2F)cc2cnc(NC3CC3)nc21`, the IC50 in experiment [1] is 7.17 µM; in experiment [5], more than 30 µM. Further, the Activity in experiment [2] was determined as 174%; in experiment [3], 2.61%; in experiment [4], 142%.
By inhibition is commonly meant the share of the control response that was lost under treatment. `Cn1c(=O)c(Oc2ccc(F)cc2F)cc2cnc(NC3CCCCC3)nc21`: the IC50 was found to be 16.1 µM in experiment [1] and 14 µM in experiment [5]. Moreover, the Activity in experiment [2] turned out to be 37.6%; in experiment [3], 0%; in experiment [4] it was 32.4%. In addition, the inhibition in experiment [6] turned out to be 93%; in experiment [7] (concentration not given here), 59%.
For the molecule `Cn1c(=O)c(Oc2c(Cl)cccc2Cl)cc2cnc(N3CCCC(O)C3)nc21` (stereo not drawn), the IC50 is more than 23 µM in experiment [1] and more than 30 µM in experiment [5]. Further, the Activity was 36.2% in experiment [2], 93.6% in experiment [3] and 133% in experiment [4].
With `Cn1c(=O)c(Oc2ccc(F)cc2F)cc2cnc(NCCCNS(C)(=O)=O)nc21`, the half-inhibitory concentration (IC50) was 2.77 µM in experiment [1] and more than 30 µM in experiment [5]. Further, the Activity in experiment [2] came to 52.9%; in experiment [3], 0%; in experiment [4] it was 73.5%. In addition, the inhibition in experiment [6] amounted to 87%. Moreover, the inhibition result in experiment [7] was “inactive”.
On to `CC(C)Nc1ncc2cc(Oc3ccc(F)cc3F)c(=O)n(C)c2n1`, for which the IC50 is 4.22 µM in experiment [1] and more than 30 µM in experiment [5]. Further, the Activity in experiment [3] turned out to be 15%; in experiment [4] it was 81%.
Regarding `Cn1c(=O)c(Oc2c(Cl)cccc2Cl)cc2cnc(Nc3ccc(N4CCCC4)cc3)nc21`, the concentration for half-maximal inhibition (IC50) was more than 23 µM in experiment [1] and more than 30 µM in experiment [5]. The values for the Activity in experiment [2], in experiment [3] and in experiment [4] were 136%, 165% and 104%, respectively.
The matching figures for `Cn1c(=O)c(Oc2ccc(F)cc2F)cc2cnc(NC3CCNCC3)nc21`: 10.9 µM, more than 30 µM, 81%, 0% and 119%.
Take `Cn1c(=O)c(Oc2c(Cl)cccc2Cl)cc2cnc(Nc3ccc(N4CCC(O)CC4)cc3)nc21`: the values for the IC50 in experiment [1] and in experiment [5] were more than 23 µM and more than 30 µM, respectively. Further, the figures for the Activity in experiment [2], in experiment [3] and in experiment [4] were 58.9%, 9.09% and 74%, respectively. In addition, the inhibition was 58% in experiment [6] and 54% in experiment [7] (concentration not given here).
For the molecule `Cn1c(=O)c(Oc2ccc(F)cc2F)cc2cnc(NCCN3CCOCC3)nc21`, the IC50 in experiment [1] is more than 23 µM; in experiment [5], more than 30 µM. Further, the results for the Activity in experiment [2], in experiment [3] and in experiment [4] were 96.1%, 26.7% and 102%, respectively.
As for `Cn1c(=O)c(Oc2c(Cl)cccc2Cl)cc2cnc(NCCc3ccccn3)nc21`, the IC50 in experiment [1] was more than 23 µM; in experiment [5], more than 30 µM. Also, the values for the Activity in experiment [2], in experiment [3] and in experiment [4] were 81.6%, 14.3% and 116%, respectively.
As for `CCOC(=O)N1CCC(Nc2ncc3cc(Oc4ccc(F)cc4F)c(=O)n(C)c3n2)CC1`, the IC50 in experiment [1] was 2.75 µM; in experiment [5] it was more than 30 µM. Besides, the Activity in experiment [3] came out at 0%; in experiment [4] it was 42%.
With `Cn1c(=O)c(Oc2ccc(F)cc2F)cc2cnc(NC3CCCCCC3)nc21`, the figures for the IC50 in experiment [1] and in experiment [5] were 6.73 µM and more than 26.7 µM, respectively. For the same molecule, the Activity stood at 84% in experiment [2], 0% in experiment [3] and 119% in experiment [4].
As for `Cn1c(=O)c(Oc2ccc(F)cc2F)cc2cnc(NCc3cccc(C(F)(F)F)c3)nc21`, the concentration for half-maximal inhibition (IC50) was more than 23 µM in experiment [1] and more than 30 µM in experiment [5]. Besides, the figures for the Activity in experiment [2], in experiment [3] and in experiment [4] were 94.1%, 0% and 101%, respectively.
Turning to `Cn1c(=O)c(Oc2ccc(F)cc2F)cc2cnc(N3CCC(O)CC3)nc21`, the IC50 in experiment [1] is more than 23 µM; in experiment [5] it was more than 30 µM. Further, the Activity was 122% in experiment [2], 124% in experiment [3] and 131% in experiment [4].
As for `O=C(O)c1ccccc1Nc1ccnc(Nc2cccc(F)c2)n1`, the IC50 in experiment [1] was 0.05 µM; in experiment [5] it was more than 30 µM. In addition, the Activity in experiment [3] worked out at 69%; in experiment [4], 46%.
Consider `Cn1c(=O)c(Oc2c(Cl)cccc2Cl)cc2cnc(NCc3ccccn3)nc21`, for which the IC50 in experiment [1] is more than 23 µM; in experiment [5] it was more than 30 µM. Moreover, the results for the Activity in experiment [2], in experiment [3] and in experiment [4] were 35.3%, 2.15% and 115%, respectively.
As for `Cn1c(=O)c(Oc2ccc(F)cc2F)cc2cnc(N3CCC(O)C3)nc21` (stereo not drawn), the IC50 in experiment [1] is more than 23 µM; in experiment [5], more than 30 µM. Further, the Activity came to 131% in experiment [2], 51.1% in experiment [3] and 111% in experiment [4].
On to `Cn1c(=O)c(Oc2c(Cl)cccc2Cl)cc2cnc(NC3CC3)nc21`, for which the IC50 in experiment [1] is 14.9 µM; in experiment [5] it was more than 30 µM. For the same molecule, the Activity was found to be 96.1% in experiment [2], 14.7% in experiment [3] and 128% in experiment [4].
As for `O=C(O)c1ccccc1Nc1ccnc(Nc2cccc(O)c2)n1`, the Activity in experiment [3] was 161%; in experiment [4], 88%. In experiment [5], this molecule displayed an IC50 of more than 30 µM.
On to `Cn1c(=O)c(Oc2ccc(F)cc2F)cc2cnc(N3CCC(CO)CC3)nc21`, for which the IC50 was more than 23 µM in experiment [1] and more than 30 µM in experiment [5]. Also, the values for the Activity in experiment [2], in experiment [3] and in experiment [4] were 91.6%, 102% and 121%, respectively.
In the case of `Cn1c(=O)c(Oc2ccc(F)cc2F)cc2cnc(NC(CCO)CCO)nc21` [PAMAPIMOD], the Activity is 14% in experiment [3] and 94% in experiment [4]. The molecule further had an IC50 in experiment [5] of more than 30 µM.
Consider `Cn1c(=O)c(Oc2c(Cl)cccc2Cl)cc2cnc(N3CCC(CO)CC3)nc21`, for which the 50% inhibitory concentration (IC50) is more than 23 µM in experiment [1] and more than 30 µM in experiment [5]. For the same molecule, the Activity was 119% in experiment [2], 127% in experiment [3] and 149% in experiment [4].
The matching figures for `Cn1c(=O)c(Oc2ccc(F)cc2F)cc2cnc(N3CCCC(O)C3)nc21` (stereo not drawn): more than 23 µM, more than 30 µM, 38.1%, 88.7% and 104%.
In the case of `Cn1c(=O)c(Oc2c(Cl)cccc2Cl)cc2cnc(NC3CCCC3)nc21`, the IC50 in experiment [1] was 19.3 µM; in experiment [5] it was more than 30 µM. Besides, the Activity in experiment [2] turned out to be 108%; in experiment [3], 8.18%; in experiment [4] it was 115%.
The matching figures for `Cn1c(=O)c(Oc2ccc(F)cc2F)cc2cnc(NCc3ccccn3)nc21`: more than 23 µM, more than 30 µM, 68.2%, 68.2% and 86.2%.
As to `Cn1c(=O)c(Oc2c(Cl)cccc2Cl)cc2cnc(N3CCCCC3CO)nc21` (stereo not drawn), the results for the half-maximal inhibitory concentration (IC50) in experiment [1] and in experiment [5] were more than 23 µM and more than 30 µM, respectively. The results for the Activity in experiment [2], in experiment [3] and in experiment [4] were 110%, 110% and 118%, respectively.
